Data published in patent publication US9868726B2, “Pyridyl benzothiophenes as kinase inhibitors” (Allergan, Inc., priority 2014, dated 2018).

Assays:
[1] = target: VEGFR2 (cytoplasmic domain KDR protein) (Homo sapiens (Human), UniProt P35968); assay: VEGFR2 Kinase Assay (biochemical KDR kinase assay, ELISA); conditions: read-out: VEGFR2 Enzyme Assay (IC50 nM); 2.7 μM ATP
VEGFR2 = VEGFR2 (Homo sapiens (Human), UniProt P35968); assay: VEGFR2 Cellular Assay (FLIPR, VEGF induced intracellular calcium in HUVEC)
Chain of VEGFR2 (P35968 20-1356): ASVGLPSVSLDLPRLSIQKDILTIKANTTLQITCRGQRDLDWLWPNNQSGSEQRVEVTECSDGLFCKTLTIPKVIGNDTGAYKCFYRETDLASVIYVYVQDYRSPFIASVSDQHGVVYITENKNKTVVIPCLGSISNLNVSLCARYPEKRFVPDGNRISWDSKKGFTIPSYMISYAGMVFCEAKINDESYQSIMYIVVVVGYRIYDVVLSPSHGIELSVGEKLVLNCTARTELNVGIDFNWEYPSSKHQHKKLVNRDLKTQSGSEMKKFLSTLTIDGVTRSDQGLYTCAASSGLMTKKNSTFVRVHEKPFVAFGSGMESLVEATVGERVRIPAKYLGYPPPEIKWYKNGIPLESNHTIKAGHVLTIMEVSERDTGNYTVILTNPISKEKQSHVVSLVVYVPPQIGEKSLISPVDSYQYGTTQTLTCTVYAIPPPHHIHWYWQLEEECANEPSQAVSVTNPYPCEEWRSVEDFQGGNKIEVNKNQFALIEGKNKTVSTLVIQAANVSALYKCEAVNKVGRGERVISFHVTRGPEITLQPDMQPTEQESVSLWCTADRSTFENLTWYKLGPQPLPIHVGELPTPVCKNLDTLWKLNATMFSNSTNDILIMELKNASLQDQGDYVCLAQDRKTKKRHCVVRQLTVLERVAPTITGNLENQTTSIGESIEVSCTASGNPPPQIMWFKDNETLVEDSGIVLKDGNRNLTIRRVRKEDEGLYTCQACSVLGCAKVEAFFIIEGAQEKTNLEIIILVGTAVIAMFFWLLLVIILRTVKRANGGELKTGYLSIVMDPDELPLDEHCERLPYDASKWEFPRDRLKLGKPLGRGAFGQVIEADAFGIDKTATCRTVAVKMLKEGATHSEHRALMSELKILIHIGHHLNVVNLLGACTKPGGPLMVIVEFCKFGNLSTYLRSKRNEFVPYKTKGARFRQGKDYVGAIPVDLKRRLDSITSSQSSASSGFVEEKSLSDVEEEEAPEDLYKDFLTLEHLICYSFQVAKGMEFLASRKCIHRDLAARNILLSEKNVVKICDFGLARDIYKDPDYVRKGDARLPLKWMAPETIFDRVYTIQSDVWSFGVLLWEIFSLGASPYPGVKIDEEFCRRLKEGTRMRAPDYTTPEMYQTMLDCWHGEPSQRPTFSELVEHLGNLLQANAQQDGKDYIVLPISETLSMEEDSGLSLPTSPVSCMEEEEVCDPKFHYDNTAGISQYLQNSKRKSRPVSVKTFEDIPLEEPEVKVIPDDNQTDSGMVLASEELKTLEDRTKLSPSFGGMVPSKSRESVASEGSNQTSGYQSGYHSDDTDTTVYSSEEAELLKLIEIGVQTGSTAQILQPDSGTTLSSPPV

[2] = target: recombinant human GST-PKR (Homo sapiens (Human), UniProt P19525); assay: PKR KinaseGlo Assay; type: biochemical; conditions: 6.6 uM ATP; read-out: PKR KINASEGLO Enzyme Assay IC50
Chain of recombinant human GST-PKR (P19525 whole entry): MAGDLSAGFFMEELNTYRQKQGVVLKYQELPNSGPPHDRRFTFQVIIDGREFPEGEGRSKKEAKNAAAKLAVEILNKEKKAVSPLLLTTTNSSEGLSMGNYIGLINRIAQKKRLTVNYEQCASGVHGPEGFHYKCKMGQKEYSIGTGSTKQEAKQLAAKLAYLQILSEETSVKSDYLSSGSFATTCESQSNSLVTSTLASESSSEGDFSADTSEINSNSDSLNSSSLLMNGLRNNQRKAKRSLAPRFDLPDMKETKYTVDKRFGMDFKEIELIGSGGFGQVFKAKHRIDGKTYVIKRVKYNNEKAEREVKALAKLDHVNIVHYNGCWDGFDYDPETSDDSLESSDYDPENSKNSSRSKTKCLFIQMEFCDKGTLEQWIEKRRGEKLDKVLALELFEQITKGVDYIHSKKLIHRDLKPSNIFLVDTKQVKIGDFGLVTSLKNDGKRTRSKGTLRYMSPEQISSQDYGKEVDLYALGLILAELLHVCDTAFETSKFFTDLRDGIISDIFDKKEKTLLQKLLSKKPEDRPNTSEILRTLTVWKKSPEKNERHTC
Method: Commercially available recombinant human GST-PKR (SignalChem, Canada; 1.5 uM-2 uM stock) is diluted to 500 nM in assay buffer (20 mM Tris-HCl, pH 7.2, 10 mM KCl, 10 mM MgCl2, 10% glycerol). Preactivated PKR is dispensed to 384/96-well black plates at 3.125/12.5 uls/well using the liquid handler Janus. Appropriate dilutions of inhibitors are added to 384/96-well plate followed by 6.6 uM ATP (final) and incubated for 10 minutes at room temperature. The remaining ATP/well is determined by adding 6.25/25 uls/well Kinase-Glo assay mix (Promega) and luminescence is measured on EnVision luminescence plate reader (integration time, 0.2 sec; Perkin-Elmer, Massachusetts, USA). […] IC50 values are determined by plotting % activity versus inhibitor concentration. Curves are fitted using Activity base XLfit (IDBS, UK) using the formula— 4 Parameter Logistic Model fit=(A+((B−A)/(1+(10^((C−x)*D))))) inv=(C−(log(((B−A)/(y−A))−1)/D)) res=(y−fit)

[3] = target: PDGFRβ (cytoplasmic domain PDGFR-b protein) (Homo sapiens (Human), UniProt P09619); assay: PDGFRβ Kinase Assay (biochemical, ELISA); conditions: 36 μM ATP; read-out: PDGFRβ Enzyme Assay (IC50 nM)
Chain of PDGFRβ (cytoplasmic domain PDGFR-b protein) (P09619 554-1106): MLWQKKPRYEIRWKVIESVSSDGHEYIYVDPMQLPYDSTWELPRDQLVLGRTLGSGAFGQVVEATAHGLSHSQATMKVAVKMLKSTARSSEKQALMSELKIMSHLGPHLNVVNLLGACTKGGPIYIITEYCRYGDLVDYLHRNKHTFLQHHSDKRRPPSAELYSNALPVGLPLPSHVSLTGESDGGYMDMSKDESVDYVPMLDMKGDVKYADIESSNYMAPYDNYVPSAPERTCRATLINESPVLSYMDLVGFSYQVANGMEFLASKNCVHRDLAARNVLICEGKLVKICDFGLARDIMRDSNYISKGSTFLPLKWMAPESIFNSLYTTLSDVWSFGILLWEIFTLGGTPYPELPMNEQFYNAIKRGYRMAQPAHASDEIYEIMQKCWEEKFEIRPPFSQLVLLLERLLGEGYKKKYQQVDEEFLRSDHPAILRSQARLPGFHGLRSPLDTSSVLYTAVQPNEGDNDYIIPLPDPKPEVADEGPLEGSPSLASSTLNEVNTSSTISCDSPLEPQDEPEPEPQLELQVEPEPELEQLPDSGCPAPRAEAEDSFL

PDGFRβ = PDGFRβ (Homo sapiens (Human), UniProt P09619); assay: PDGFRβ Cellular Assay (FLIPR, PDGF-induced intracellular calcium in NHDF-Ad)
Chain of PDGFRβ (P09619 33-1106): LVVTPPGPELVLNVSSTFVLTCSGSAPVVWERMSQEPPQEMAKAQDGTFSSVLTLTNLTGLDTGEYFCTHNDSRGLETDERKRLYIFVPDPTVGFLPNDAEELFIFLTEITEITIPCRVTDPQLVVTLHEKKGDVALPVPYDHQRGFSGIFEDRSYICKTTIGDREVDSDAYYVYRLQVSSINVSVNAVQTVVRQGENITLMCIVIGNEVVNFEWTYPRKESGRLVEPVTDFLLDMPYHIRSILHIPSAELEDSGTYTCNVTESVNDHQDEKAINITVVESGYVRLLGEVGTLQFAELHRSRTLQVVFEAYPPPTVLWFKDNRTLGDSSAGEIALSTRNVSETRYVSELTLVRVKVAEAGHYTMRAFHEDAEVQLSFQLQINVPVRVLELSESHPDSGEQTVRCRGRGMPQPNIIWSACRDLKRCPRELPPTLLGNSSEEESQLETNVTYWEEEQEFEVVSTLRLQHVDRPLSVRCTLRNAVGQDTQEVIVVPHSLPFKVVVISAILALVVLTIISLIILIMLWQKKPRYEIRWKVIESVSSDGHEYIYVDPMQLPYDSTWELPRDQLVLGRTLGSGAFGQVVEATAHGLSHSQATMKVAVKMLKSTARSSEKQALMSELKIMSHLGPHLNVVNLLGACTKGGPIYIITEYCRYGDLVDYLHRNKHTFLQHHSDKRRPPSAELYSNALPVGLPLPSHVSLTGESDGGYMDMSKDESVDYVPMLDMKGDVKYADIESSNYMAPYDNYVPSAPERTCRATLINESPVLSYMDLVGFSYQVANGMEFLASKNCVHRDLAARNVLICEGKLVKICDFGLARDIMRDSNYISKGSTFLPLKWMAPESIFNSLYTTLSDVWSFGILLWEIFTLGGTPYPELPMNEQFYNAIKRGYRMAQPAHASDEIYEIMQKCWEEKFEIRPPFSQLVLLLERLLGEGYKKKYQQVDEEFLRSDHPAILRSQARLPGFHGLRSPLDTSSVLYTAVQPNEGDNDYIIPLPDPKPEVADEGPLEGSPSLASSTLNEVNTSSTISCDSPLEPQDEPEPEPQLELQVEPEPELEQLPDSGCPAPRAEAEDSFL

Chain of VEGFR2 (cytoplasmic domain KDR protein) (P35968 786-1356): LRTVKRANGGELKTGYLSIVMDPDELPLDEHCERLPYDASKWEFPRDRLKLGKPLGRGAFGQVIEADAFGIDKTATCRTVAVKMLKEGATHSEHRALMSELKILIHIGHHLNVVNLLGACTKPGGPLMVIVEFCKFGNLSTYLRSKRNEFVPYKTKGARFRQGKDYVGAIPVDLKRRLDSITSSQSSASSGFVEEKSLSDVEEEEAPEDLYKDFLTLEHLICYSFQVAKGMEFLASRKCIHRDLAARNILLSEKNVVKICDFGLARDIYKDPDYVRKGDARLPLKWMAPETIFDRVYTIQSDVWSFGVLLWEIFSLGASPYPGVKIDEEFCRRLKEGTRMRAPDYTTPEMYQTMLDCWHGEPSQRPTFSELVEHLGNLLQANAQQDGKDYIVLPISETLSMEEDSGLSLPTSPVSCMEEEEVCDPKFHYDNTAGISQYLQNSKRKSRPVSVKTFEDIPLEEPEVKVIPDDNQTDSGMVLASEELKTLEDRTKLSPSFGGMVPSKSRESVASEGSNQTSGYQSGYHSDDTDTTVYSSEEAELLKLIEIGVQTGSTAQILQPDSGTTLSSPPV

Row | Structure (SMILES) | IC50 [1] | IC50 (VEGFR2) | IC50 [2] | IC50 [3] | IC50 (PDGFRβ)
1 | CS(C)(=O)=NC(=O)c1cnc(N)c(-c2cc3cc(NC(=O)Nc4ccc(Cl)c(C(F)(F)F)c4)ccc3s2)c1 [Example 5, 6-amino-5-{5-[({[4-chloro-3-(trifluoromethyl)phenyl]amino}carbonyl)amino]-1-benzothien-2-yl}-N-[dimethyl(oxido)-λ^4-sulfanylidene]nicotinamide] | 6 nM | 11 nM | 69 nM | 21 nM | –
2 | CS(C)(=O)=NC(=O)c1cnc(N)c(-c2cc3cc(NC(=O)Nc4cc(C(F)(F)F)ccc4F)ccc3s2)c1 [Example 6, 6-amino-N-[dimethyl(oxido)-λ^4-sulfanylidene]-5-{5-[({[2-fluoro-5-(trifluoromethyl)phenyl]amino}carbonyl)amino]-1-benzothien-2-yl}nicotinamide] | 6 nM | 5 nM | 167 nM | 27 nM | –
3 | CS(C)(=O)=NC(=O)c1cncc(-c2cc3cc(NC(=O)Nc4cc(C(F)(F)F)ccc4F)ccc3s2)c1 [Example 57, N-[dimethyl(oxido)-λ^4-sulfanylidene]-5-{5-[({[2-fluoro-5-(trifluoromethyl)phenyl]amino}carbonyl)amino]-1-benzothien-2-yl}nicotinamide] | 7 nM | – | 551 nM | – | –
4 | CS(C)(=O)=NC(=O)c1cncc(-c2cc3cc(NC(=O)Nc4ccc(Cl)c(C(F)(F)F)c4)ccc3s2)c1 [Example 58, 5-{5-[({[4-chloro-3-(trifluoromethyl)phenyl]amino}carbonyl)amino]-1-benzothien-2-yl}-N-[dimethyl(oxido)-Δ^4-sulfanylidene]nicotinamide] | 14 nM | – | 390 nM | – | –
5 | COP(=O)(OC)c1cnc(N)c(-c2ccc(NC(=O)Nc3cccc(C(F)(F)F)c3)cc2)c1 [Example 64, dimethyl (6-amino-5-(4-(3-(3-(trifluoromethyl)phenyl)ureido)phenyl)pyridin-3-yl)phosphonate] | – | – | – | – | 66 nM
